Measured values published in patent US8569327B2, “Phenanthroindolizidine derivative and NFκB inhibitor containing same as active ingredient” (Kabushiki Kaisha Yakult Honsha, priority 2008, dated 2013).

Tests used:
NFκB = assay: Inhibitory action on the NFκB activity, luciferase assay in SW480/NRE-Luc cells; type: cell-based, human; details: for NFκB inhibitory activity IC50: SW480/NRE-Luc cells, compound 1 h then 50 ng/mL TNFα 4 h, luciferase; for IC50: Homo sapiens, SW480, read-out: NFκB inhibitory activity IC50
Text: (§1) The action of the phenanthroindolizidine alkaloid compound of the present invention on the NFκB activity was studied using a luciferase assay. Human colon cancer SW480 cells were transfected with pNFκB-Luc Plasmid (Stratagene), which is a reporter vector in which a five-time tandem repeat of the NFκB responsive element (NRE) is integrated into the upstream of the luciferase gene, using Lipofectamine 2000 (Invitrogen Corporation) in accordance with the attached operating procedure. Subsequently, the cells were cultured in an RPMI1640 medium containing 10% FBS, 100 U/mL penicillin, 100 μg/mL streptomycin, and 0.5 mg/mL G418 to produce SW480 cells having the luciferase gene, the expression of which is regulated by NRE, stably introduced therein (SW480/NRE-Luc cells). Likewise, SW480 cells were transfected with pGL3-Control Vector (Promega Corporation), which is a reporter vector in which the SV40 promoter is integrated into the upstream of the luciferase gene, to produce SW480 cells having the luciferase gene, the expression of which is regulated by the SV40 promoter, stably introduced therein (SW480/SV40-Luc cells). The SW480/NRE-Luc cells or the SW480/SV40-Luc cells were suspended in an RPMI1640 medium containing 10% FBS, 100 U/mL penicillin, and 100 μg/mL streptomycin (10% FBS/RPMI1640), and then seeded in a 96-well microplate, followed by culturing under conditions of 5% CO2 and at 37° C. (5000 cells/well). After an overnight culture, the compound of the present invention was added, followed by culturing for one hour. Further, 50 ng/mL TNFα (Sigma-Aldrich Corporation) was added, followed by culturing for four hours. Subsequently, a Steady-Glo Luciferase Assay reagent (Promega Corporation) was added, and the luminescent intensity was detected by SpectraMax M5e (Molecular Devices, Inc.) to measure the intracellular luciferase activity. It is to be noted that the action of the compound of the present invention on the NFκB activity or the SV40 promoter activity was shown as IC50 values (the concentration of a test compound needed for 50% inhibition of the induction of the luciferase expression).

[1] = tested on: human colon cancer HT-29 cells; assay: Inhibitory action on the proliferation of HT-29 cells; type: cell-based; details: 96 hours, TetraColor ONE; for IC50: Homo sapiens, HT-29
Method: (§2) The action of the phenanthroindolizidine alkaloid compound of the present invention on the proliferation of human colon cancer SW480 cells, HT-29 cells, and human non-small cell lung cancer A549 cells was studied. The SW480 cells were suspended in a 10% FBS/RPMI1640 and then seeded in a 96-well microplate, followed by culturing in 5% CO2 at 37° C. (2000 cells/well). The A549 cells and the HT-29 cells were each suspended in a DMEM medium containing 10% FBS, 100 U/mL penicillin, and 100 μg/mL streptomycin (10% FBS/DMEM) and a DMEM F-12 HAM medium containing 10% FBS, 100 U/mL penicillin, and 100 μg/mL streptomycin (10% FBS/DMEM F12 HAM), and then seeded in 96-well microplates, followed by culturing in 5% CO2 at 37° C. (1000 cells/well). After an overnight culture, the compound of the present invention was added, followed by further culturing for 48 hours (SW480 cells) and 96 hours (A549 cells and HT-29 cells). After culturing, the number of viable cells was counted using TetraColor ONE (Seikagaku Corporation) in accordance with the attached operating procedure. The results were expressed as the concentration of a test compound needed for 50% inhibition of the proliferation of the cells (IC50).

[2] = tested on: human non-small cell lung cancer A549 cells; assay: Inhibitory action on the proliferation of A549 cells; type: cell-based; details: 96 hours, TetraColor ONE; for IC50: Homo sapiens, A549
Method: as §2

[3] = tested on: human colon cancer SW480 cells; assay: Inhibitory action on the proliferation of SW480 cells; type: cell-based; details: 48 hours, TetraColor ONE; for IC50: Homo sapiens, SW480
Method: as §2

SV40 promoter = SV40 promoter activity, luciferase assay in SW480/SV40-Luc cells; type: cell-based, human; details: for SV40 promoter inhibitory activity IC50: SW480/SV40-Luc cells, luciferase; for IC50: Homo sapiens, SW480, read-out: SV40 promoter inhibitory activity IC50
Text: as §1

COc1cc2c3c(c4ccc(OC(=O)c5ccco5)cc4c2cc1OC)C[C@@H]1CCCN1C3.CS(=O)(=O)O [Compound 52, furan-2-carboxylic acid(S)-6,7-dimethoxy-9,10,11,12,12a,13-hexahydro-9a-aza-cyclopenta[b]triphenylene-3-yl ester methanesulfonate]
NFκB inhibitory activity IC50 (NFκB): 0.61 ng/mL | HT-29 proliferation inhibitory action IC50 [1]: 2.0 ng/mL | A549 proliferation inhibitory action IC50 [2]: 1.3 ng/mL | SW480 proliferation inhibitory action IC50 [3]: 0.51 ng/mL | SV40 promoter inhibitory activity IC50 (SV40 promoter): >1000 ng/mL

COc1cc2c3c(c4ccc(OC(=O)C(C)(C)C)cc4c2cc1OC)[C@H](O)[C@@H]1CCCN1C3.Cl [Compound 10, 2,2-dimethyl-propionic acid(12aS,13S)-13-hydroxy-6,7-dimethoxy-9,10,11,12,12a,13-hexahydro-9a-aza-cyclopenta[b]triphenylene-3-yl ester hydrochloride]
NFκB inhibitory activity IC50 (NFκB): 0.49 ng/mL | HT-29 proliferation inhibitory action IC50 [1]: 0.47 ng/mL | A549 proliferation inhibitory action IC50 [2]: 0.14 ng/mL | SW480 proliferation inhibitory action IC50 [3]: 0.73 ng/mL | SV40 promoter inhibitory activity IC50 (SV40 promoter): >100 ng/mL

COc1cc2c3c(c4ccc(NC(=O)OCC(C)C)cc4c2cc1OC)C[C@@H]1CCCN1C3.Cl [Compound 42, ((S)-6,7-dimethoxy-9,10,11,12,12a,13-hexahydro-9a-aza-cyclopenta[b]triphenylene-3-yl)-carbamic acid isobutyl ester hydrochloride]
IC50 (NFκB): 117 ng/mL | IC50 [1]: 19 ng/mL | IC50 [2]: 27 ng/mL | IC50 [3]: 96.3 ng/mL | IC50 (SV40 promoter): > 10000 ng/mL

COc1cc2c3c(c4ccc(F)cc4c2cc1OC)[C@H](O)[C@@H]1CCCN1C3.Cl [Compound 5, (12aS,13S)-3-fluoro-6,7-dimethoxy-9,10,11,12,12a,13-hexahydro-9a-aza-cyclopenta[b]triphenylene-13-ol hydrochloride]
IC50 (NFκB): 20.7 ng/mL | IC50 [1]: 7.2 ng/mL | IC50 [2]: 4.1 ng/mL | IC50 [3]: 39.2 ng/mL | IC50 (SV40 promoter): > 1000 ng/mL

benzhydryl-((S)-6,7-dimethoxy-3-pyrrolidine-9,10,11,12,12a,13-hexahydro-9a-aza-cyclopenta[b]triphenylene-3-yl)-amine methanesulfonate [Compound 58]
NFκB inhibitory activity IC50 (NFκB): 16.2 ng/mL | HT-29 proliferation inhibitory action IC50 [1]: 52.2 ng/mL | A549 proliferation inhibitory action IC50 [2]: 20.7 ng/mL | SW480 proliferation inhibitory action IC50 [3]: 42.3 ng/mL | SV40 promoter inhibitory activity IC50 (SV40 promoter): >10000 ng/mL

COc1cc2c3c(c4ccc(OC(=O)c5ccncc5)cc4c2cc1OC)[C@H](O)[C@@H]1CCCN1C3.Cl [Compound 12, isonicotinic acid(12aS,13S)-13-hydroxy-6,7-dimethoxy-9,10,11,12,12a,13-hexahydro-9a-aza-cyclopenta[b]triphenylene-3-yl ester hydrochloride]
NFκB inhibitory activity IC50 (NFκB): 0.33 ng/mL | HT-29 proliferation inhibitory action IC50 [1]: 0.62 ng/mL | A549 proliferation inhibitory action IC50 [2]: 0.19 ng/mL | SW480 proliferation inhibitory action IC50 [3]: 0.51 ng/mL | SV40 promoter inhibitory activity IC50 (SV40 promoter): >100 ng/mL

CCc1ccc2c3c(c4cc(OC)c(OC)cc4c2c1)CN1CCC[C@H]1C3.Cl [Compound 41, (S)-3-ethyl-6,7-dimethoxy-9,10,11,12,12a,13-hexahydro-9a-aza-cyclopenta[b]triphenylene hydrochloride]
IC50 (NFκB): 281 ng/mL | IC50 [1]: 167 ng/mL | IC50 [2]: 112 ng/mL | IC50 [3]: 391 ng/mL | IC50 (SV40 promoter): > 10000 ng/mL

COc1cc2c3c(c4ccc(N)cc4c2cc1OC)[C@H](O)[C@@H]1CCCN1C3.Cl [Compound 25, (12aS,13S)-3-amino-6,7-dimethoxy-9,10,11,12,12a,13-hexahydro-9a-aza-cyclopenta[b]triphenylene-13-ol hydrochloride]
IC50 (NFκB): 1.1 ng/mL | IC50 [1]: 0.28 ng/mL | IC50 [2]: 0.4 ng/mL | IC50 [3]: 2.3 ng/mL | IC50 (SV40 promoter): > 100 ng/mL

COc1cc2c3c(c4ccccc4c2cc1OC)[C@H](O)[C@@H]1CCCN1C3.Cl [Compound 1, (12aS,13S)-6,7-dimethoxy-9,10,11,12,12a,13-hexahydro-9a-aza-cyclopenta[b]triphenylene-13-ol hydrochloride]
IC50 (NFκB): 2.7 ng/mL | IC50 [1]: 3.7 ng/mL | IC50 [2]: 2.6 ng/mL | IC50 [3]: 5.1 ng/mL | IC50 (SV40 promoter): > 1000 ng/mL

COc1cc2c3c(c4ccc(OC(=O)c5ccoc5)cc4c2cc1OC)[C@H](O)[C@@H]1CCCN1C3.Cl [Compound 22, furan-3-carboxylic acid(12aS,13S)-13-hydroxy-6,7-dimethoxy-9,10,11,12,12a,13-hexahydro-9a-aza-cyclopenta[b]triphenylene-3-yl ester hydrochloride]
NFκB inhibitory activity IC50 (NFκB): 1.7 ng/mL | HT-29 proliferation inhibitory action IC50 [1]: 1.9 ng/mL | A549 proliferation inhibitory action IC50 [2]: 1.1 ng/mL | SW480 proliferation inhibitory action IC50 [3]: 2.8 ng/mL | SV40 promoter inhibitory activity IC50 (SV40 promoter): >1000 ng/mL

COc1cc2c3c(c4ccc(NC(=O)OCC(C)C)cc4c2cc1OC)C[C@@H]1CCCN1C3.CS(=O)(=O)O [Compound 55, ((S)-6,7-dimethoxy-9,10,11,12,12a,13-hexahydro-9a-aza-cyclopenta[b]triphenylene-3-yl)-carbamic acid isobutyl ester methanesulfonate]
IC50 (NFκB): 0.5 ng/mL | IC50 [1]: 46 ng/mL | IC50 [2]: 33.7 ng/mL | IC50 [3]: 0.76 ng/mL | IC50 (SV40 promoter): > 10000 ng/mL

CCC(=O)Oc1ccc2c3c(c4cc(OC)c(OC)cc4c2c1)CN1CCC[C@H]1C3.CS(=O)(=O)O [Compound 51, propionic acid(S)-6,7-dimethoxy-9,10,11,12,12a,13-hexahydro-9a-aza-cyclopenta[b]triphenylene-3-yl ester methanesulfonate]
NFκB inhibitory activity IC50 (NFκB): 0.80 ng/mL | HT-29 proliferation inhibitory action IC50 [1]: 1.6 ng/mL | A549 proliferation inhibitory action IC50 [2]: 0.78 ng/mL | SW480 proliferation inhibitory action IC50 [3]: 1.1 ng/mL | SV40 promoter inhibitory activity IC50 (SV40 promoter): >100 ng/mL

CCCCC(=O)Oc1ccc2c3c(c4cc(OC)c(OC)cc4c2c1)CN1CCC[C@H]1C3.CS(=O)(=O)O [Compound 49, pentanoic acid(S)-6,7-dimethoxy-9,10,11,12,12a,13-hexahydro-9a-aza-cyclopenta[b]triphenylene-3-yl ester methanesulfonate]
NFκB inhibitory activity IC50 (NFκB): 0.41 ng/mL | HT-29 proliferation inhibitory action IC50 [1]: 2.0 ng/mL | A549 proliferation inhibitory action IC50 [2]: 1.1 ng/mL | SW480 proliferation inhibitory action IC50 [3]: 0.62 ng/mL | SV40 promoter inhibitory activity IC50 (SV40 promoter): >1000 ng/mL

COc1cc2c3c(c4ccc(OC(=O)C(C)C)cc4c2cc1OC)[C@H](O)[C@@H]1CCCN1C3.Cl [Compound 9, isobutyric acid(12aS,13S)-13-hydroxy-6,7-dimethoxy-9,10,11,12,12a,13-hexahydro-9a-aza-cyclopenta[b]triphenylene-3-yl ester hydrochloride]
NFκB inhibitory activity IC50 (NFκB): 0.26 ng/mL | HT-29 proliferation inhibitory action IC50 [1]: 0.38 ng/mL | A549 proliferation inhibitory action IC50 [2]: 0.57 ng/mL | SW480 proliferation inhibitory action IC50 [3]: 0.36 ng/mL | SV40 promoter inhibitory activity IC50 (SV40 promoter): >100 ng/mL

CCC(=O)Oc1ccc2c3c(c4cc(OC)c(OC)cc4c2c1)CN1CCC[C@H]1[C@H]3O.Cl [Compound 15, propionic acid(12aS,13S)-13-hydroxy-6,7-dimethoxy-9,10,11,12,12a,13-hexahydro-9a-aza-cyclopenta[b]triphenylene-3-yl ester hydrochloride]
NFκB inhibitory activity IC50 (NFκB): 0.20 ng/mL | HT-29 proliferation inhibitory action IC50 [1]: 0.62 ng/mL | A549 proliferation inhibitory action IC50 [2]: 0.35 ng/mL | SW480 proliferation inhibitory action IC50 [3]: 0.39 ng/mL | SV40 promoter inhibitory activity IC50 (SV40 promoter): >100 ng/mL
